Measurements as given in US20050197371A1, “Urea derivatives as PDGFR modulators” (Ambit Biosciences Corporation, priority 2003, published 2005).

These compounds were tested against T1, PDGFRB(DKIN) (PDGFR-β) (Homo sapiens, UniProt P09619) (assay: Phage-display competitive binding assay, PDGFRB(DKIN)). Settings: T7 phage displaying human PDGFR-β, DKIN construct; read-out: Binding Assay: PDGFRB(DKIN).
T1 construct: PDGFRB(DKIN)
Description: The term “ND” represents non-determined values.
Briefly, T7 phage displaying human PDGFR-β were incubated with an affinity matrix coated with known PDGFR-β inhibitor in the presence of various concentrations of the soluble competitor molecules.

Row | SMILES | Kd [µM]
1 | C/C=C/C(=O)Nc1ccc(NC(=O)Nc2cc(C(C)(C)C)on2)cc1 [Compound N93] | 1 to 10
2 | CC(C)(C)c1cc(NC(=O)Nc2ccc(NC(=O)c3c(Cl)cccc3Cl)cc2)no1 [Compound N94] | 0.1 to 1
3 | CC(C)(C)c1cc(NC(=O)Nc2ccc(NC(=O)c3c(F)cccc3C(F)(F)F)cc2)no1 [Compound N95] | 1 to 10
4 | CC(C)(C)c1cc(NC(=O)Nc2ccc(NC(=O)CCc3ccccc3)cc2)no1 [Compound N96] | 0.1 to 1
5 | CC(C)(C)c1cc(NC(=O)Nc2ccc(C(=O)NCc3ccc4c(c3)OCO4)cc2)no1 [Compound N97] | 1 to 10
6 | CC(C)(C)c1cc(NC(=O)Nc2ccc(NC(=O)Cc3ccc(OCc4ccccc4)cc3)cc2)no1 [Compound N98] | > 10
7 | CC(C)(C)c1cc(NC(=O)Nc2ccc(C(=O)Nc3ccc(OCC4CCC4)cc3)cc2)no1 [Compound N100] | 0.1 to 1
8 | CC(C)(C)OC(=O)Nc1ccc(NC(=O)Nc2cc(C(C)(C)C)on2)cc1 [Compound N101] | 0.1 to 1
9 | CCN(CC)CCNC(=O)c1ccc(NC(=O)Nc2cc(C(C)(C)C)on2)cc1 [Compound N102] | > 10
10 | Cc1ccncc1C(=O)Nc1ccc(NC(=O)Nc2cc(C(C)(C)C)on2)cc1 [Compound N104] | 0.1 to 1
11 | COc1cccc(-c2ccc(C(=O)Nc3ccc(NC(=O)Nc4cc(C(C)(C)C)on4)cc3)o2)c1 [Compound N105] | 0.1 to 1
12 | CC(C)(C)c1cc(NC(=O)Nc2ccc(NC(=O)Cc3csc4ccccc34)cc2)no1 [Compound N107] | 1 to 10
13 | CC(C)(C)c1cc(NC(=O)Nc2ccc(NC(=O)c3cnc4ccccc4c3)cc2)no1 [Compound N108] | < 0.1
14 | CC(C)(C)c1cc(NC(=O)Nc2ccc(NC(=O)c3cccc4nsnc34)cc2)no1 [Compound N109] | < 0.1
15 | CC(C)(C)c1cc(NC(=O)Nc2ccc(NC(=O)c3ccc4cnccc4n3)cc2)no1 [Compound N110] | < 0.1
16 | CC(C)(C)c1cc(NC(=O)Nc2ccc(NC(=O)c3cccc4c3OCCO4)cc2)no1 [Compound N111] | 0.1 to 1
17 | CC(C)(C)c1cc(NC(=O)Nc2ccc(NC(=O)c3cc(Cl)cn(Cc4ccccc4)c3=O)cc2)no1 [Compound N112] | 0.1 to 1
18 | COC(=O)c1ccc(C(=O)Nc2ccc(NC(=O)Nc3cc(C(C)(C)C)on3)cc2)nc1 [Compound N113] | < 0.1
19 | CSc1ncc(Br)c(C(=O)Nc2ccc(NC(=O)Nc3cc(C(C)(C)C)on3)cc2)n1 [Compound N114] | < 0.1
20 | CC(C)(C)c1cc(NC(=O)Nc2ccc(NC(=O)c3cccc4cccnc34)cc2)no1 [Compound N115] | < 0.1
21 | Cc1nn(C)c(Cl)c1C(=O)Nc1ccc(NC(=O)Nc2cc(C(C)(C)C)on2)cc1 [Compound N116] | < 0.1
22 | CC(C)(C)c1cc(NC(=O)Nc2ccc(NC(=O)c3nccc4ccccc34)cc2)no1 [Compound N117] | < 0.1
23 | COc1ccc(-c2cc(C(=O)Nc3ccc(NC(=O)Nc4cc(C(C)(C)C)on4)cc3)c(C)o2)cc1 [Compound N118] | 1 to 10
24 | Cn1cc(C(=O)Nc2ccc(NC(=O)Nc3cc(C(C)(C)C)on3)cc2)c2ccccc21 [Compound N119] | < 0.1
25 | Cc1ccc(-c2cc(C(=O)Nc3ccc(NC(=O)Nc4cc(C(C)(C)C)on4)cc3)c(C)o2)cc1 [Compound N120] | 1 to 10

Row | SMILES | Kd [µM]
26 | Cc1cccc(C(=O)Nc2ccc(NC(=O)Nc3cc(C(C)(C)C)on3)cc2)n1 [Compound N121] | < 0.1
27 | CC(C)(C)c1cc(NC(=O)Nc2ccc(NC(=O)c3ccc4sccc4c3)cc2)no1 [Compound N122] | < 0.1
28 | CC(C)(C)c1cc(NC(=O)Nc2ccc(NC(=O)c3cnc(Cl)c(Cl)c3)cc2)no1 [Compound N123] | 1 to 10
29 | CC(C)(C)c1cc(NC(=O)Nc2ccc(NC(=O)c3coc(-c4ccc(Cl)cc4)n3)cc2)no1 [Compound N124] | 0.1 to 1
30 | CC(C)(C)c1cc(NC(=O)Nc2ccc(NC(=O)c3ccc(Cl)nc3)cc2)no1 [Compound N125] | 0.1 to 1
31 | CC(C)(C)c1cc(NC(=O)Nc2ccc(NC(=O)c3cc4cc(Br)ccc4s3)cc2)no1 [Compound N126] | 0.1 to 1
32 | Cc1ccc2[nH]c(C(=O)Nc3ccc(NC(=O)Nc4cc(C(C)(C)C)on4)cc3)cc2c1 [Compound N127] | < 0.1
33 | COc1cc(OC)nc(C2CCCCC2C(=O)Nc2ccc(NC(=O)Nc3cc(C(C)(C)C)on3)cc2)n1 (centres unmarked) [Compound N129] | 0.1 to 1
34 | CC(C)(C)c1cc(NC(=O)Nc2ccc(NC(=O)c3ccc(Cl)nc3Cl)cc2)no1 [Compound N130] | 0.1 to 1
35 | Cc1ccc2sc(C(=O)Nc3ccc(NC(=O)Nc4cc(C(C)(C)C)on4)cc3)cc2c1 [Compound N133] | < 0.1
36 | CC(C)(C)c1cc(NC(=O)Nc2ccc(NC(=O)c3cnc4cc(C(F)(F)F)ccc4c3O)cc2)no1 [Compound N146] | 1 to 10
37 | CC(C)(C)c1cc(NC(=O)Nc2ccc(NC(=O)c3cnnc4ccccc34)cc2)no1 [Compound N147] | < 0.1
38 | CC(C)(C)c1cc(NC(=O)Nc2ccc(NC(=O)c3c4ccccc4nc4ccccc34)cc2)no1 [Compound N148] | 1 to 10
39 | CC(C)(C)c1cc(NC(=O)Nc2ccc(NC(=O)c3cnc4ccccc4n3)cc2)no1 [Compound N149] | 1 to 10
40 | CC(C)(C)c1cc(NC(=O)Nc2ccc(NC(=O)c3ccc4ncccc4c3)cc2)no1 [Compound N151] | < 0.1
41 | CC(C)(C)c1cc(NC(=O)Nc2ccc(C(=O)Nc3ccc(F)cc3F)cc2)no1 [Compound N153] | 0.1 to 1
42 | CC(C)(C)c1cc(NC(=O)Nc2ccc(C(=O)Nc3nccnc3N)cc2)no1 [Compound N157] | < 0.1
43 | CN(C)c1ccc(C(=O)Nc2ccc(NC(=O)Nc3cc(C(C)(C)C)on3)cc2)cn1 [Compound N159] | < 0.1
44 | Cc1cnc(C(=O)Nc2ccc(NC(=O)Nc3cc(C(C)(C)C)on3)cc2)c(C(=O)O)n1 [Compound N160] | < 0.1
45 | CC(C)(C)c1cc(NC(=O)Nc2ccc(NC(=O)c3cc4ccccc4[nH]3)cc2)no1 [Compound N161] | < 0.1
46 | COc1cc(C(=O)Nc2ccc(NC(=O)Nc3cc(C(C)(C)C)on3)cc2)nc(OC)n1 [Compound N162] | < 0.1
47 | CCOC(=O)c1cccc(C(=O)Nc2ccc(NC(=O)Nc3cc(C(C)(C)C)on3)cc2)n1 [Compound N164] | < 0.1
48 | CC(C)(C)c1cc(NC(=O)Nc2ccc(NC(=O)c3cccnc3C(=O)O)cc2)no1 [Compound N165] | 0.1 to 1
49 | CC(C)(C)c1cc(NC(=O)Nc2ccc(NC(=O)c3ccc(Oc4ccnc(C(=O)O)c4)cc3)cc2)no1 [Compound N166] | < 0.1
50 | CC(C)(C)c1cc(NC(=O)Nc2ccc(NC(=O)c3ccncc3)cc2)no1 [Compound N167] | < 0.1

Row | SMILES | Kd [µM]
51 | Cc1cc(NC(=O)c2cn3nc(Cl)ccc3n2)ccc1NC(=O)Nc1cc(C(C)(C)C)on1 [Compound N169] | 0.1 to 1
52 | Cc1cc(NC(=O)[C@](C)(O)CSc2ccc(F)cc2)ccc1NC(=O)Nc1cc(C(C)(C)C)on1 [Compound N170] | 0.1 to 1
53 | COc1cc(NC(=O)c2cn3nc(Cl)ccc3n2)ccc1NC(=O)Nc1cc(C(C)(C)C)on1 [Compound N171] | 0.1 to 1
54 | COc1cc(NC(=O)CCC(=O)N2CCNC(=O)CC2)ccc1NC(=O)Nc1cc(C(C)(C)C)on1 [Compound N172] | 1 to 10
55 | Cc1nc(-c2ccc(C(=O)Nc3ccc(NC(=O)Nc4cc(C(C)(C)C)on4)cc3)s2)cs1 [Compound N173] | < 0.1
56 | CC(C)(C)c1cc(NC(=O)Nc2ccc(NC(=O)c3cc(Cl)nnc3Cl)cc2)no1 [Compound N174] | 0.1 to 1
57 | CC(C)(C)c1cc(NC(=O)Nc2ccc(NC(=O)c3cc(O)c4cccc(O)c4n3)cc2)no1 [Compound N176] | 1 to 10
58 | COc1ccc(C(=O)c2c[nH]c(C(=O)Nc3ccc(NC(=O)Nc4cc(C(C)(C)C)on4)cc3)c2)cc1 [Compound N177] | 1 to 10
59 | Cc1ccc(-c2nc(C(=O)Nc3ccc(NC(=O)Nc4cc(C(C)(C)C)on4)cc3)cs2)cc1 [Compound N178] | < 0.1
60 | CC(C)(C)c1cc(NC(=O)Nc2ccc(NC(=O)c3nnsc3Sc3ccc(C(F)(F)F)cc3)cc2)no1 [Compound N179] | 0.1 to 1
61 | CC(C)(C)c1cc(NC(=O)Nc2ccc(NC(=O)c3csc(Cc4cccc(C(F)(F)F)c4)n3)cc2)no1 [Compound N180] | 0.1 to 1
62 | Cc1nc(-c2ccccc2)sc1C(=O)Nc1ccc(NC(=O)Nc2cc(C(C)(C)C)on2)cc1 [Compound N181] | 0.1 to 1
63 | CC(C)c1nnsc1C(=O)Nc1ccc(NC(=O)Nc2cc(C(C)(C)C)on2)cc1 [Compound N182] | 1 to 10
64 | Cc1nc(-c2ccc(Cl)cc2)sc1C(=O)Nc1ccc(NC(=O)Nc2cc(C(C)(C)C)on2)cc1 [Compound N184] | 0.1 to 1
65 | COc1cc2nc(Cl)nc(Nc3ccc(NC(=O)Nc4cc(C(C)(C)C)on4)cc3)c2cc1OC [Compound O1, 1-(4-(2-chloro-6,7-dimethoxyquinazolin-4-ylamino)phenyl)-3-(5-tert-butylisoxazol-3-yl)urea] | 0.1 to 1
66 | Cc1cnc(C(=O)Nc2ccc(NC(=O)Nc3cc(C(C)(C)C)on3)cc2)cn1 [Compound O2] | < 0.1
67 | CC(C)(C)c1cc(NC(=O)Nc2ccc(Nc3ncnc4[nH]cnc34)cc2)no1 [Compound O3] | < 0.1
68 | CC(C)(C)c1cc(NC(=O)Nc2ccc(Nc3nc(Cl)nc4[nH]cnc34)cc2)no1 [Compound O4] | < 0.1
69 | COc1cc2ncnc(Nc3ccc(NC(=O)Nc4cc(C(C)(C)C)on4)cc3)c2cc1OC [Compound O5] | < 0.1
70 | CC(C)(C)c1cc(NC(=O)Nc2ccc(Nc3nc(N)nc4[nH]cnc34)cc2)no1 [Compound O6] | < 0.1
71 | CC(C)(C)c1cc(NC(=O)Nc2ccc(Nc3ccnc(N)n3)cc2)no1 [Compound O7] | 0.1 to 1
72 | COC(=O)c1cccc(Sc2ncc(NC(=O)Nc3cc(C(C)(C)C)on3)s2)c1 [Compound O8] | 0.1 to 1
73 | Cc1ccc(CNc2ccc(NC(=O)Nc3cc(C(C)(C)C)on3)cc2)cc1 [Compound O9] | 0.1 to 1

Same assay, conditions: read-out: Binding Assay: PDGFRB(DKIN); T7 phage displaying human PDGFR-β, DKIN construct

Row | SMILES | Kd [µM]
74 | CC(C)(C)c1cc(NC(=O)Nc2ccc(NC(=O)c3cc4ccccc4cn3)cc2)no1 [Compound N106] | < 0.1
